Assay results as given in PubChem BioAssay AID248 (DTP/NCI, 2004).
Several values for one entry are separate records, joined by “and”; a condition that tells them apart may be missing. Equal values may be shown once. Toxic doses and inconclusive results are not listed. Square brackets hold non-standard residues; d marks the D form. Peptide text beside a SMILES is read from it. * marks the point of attachment. Cbz = O=C(OCc1ccccc1)*; Sar = CNCC(=O)O

Tested on: L1210 leukemia ip in BDF1 mice, survival T/C
Assay: NCI In Vivo Anticancer Drug Screen. Data for tumor model L1210 Leukemia (intraperitoneal) in B6D2F1 (BDF1) mice
Conditions: endpoint: mean survival time, higher = longer survival
Method in brief: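 Mice bearing the transplanted tumor received compound or vehicle. Survival of the treated group was divided by that of the vehicle-treated control group to give the ratio.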

[1] = dose: 12.5 mg/kg/injection, schedule: Q04DX003 (ip), vehicle: Klucel (hydroxypropylcellulose) (HPC)
[2] = dose: 25.0 mg/kg/injection, schedule: Q04DX003 (ip), vehicle: Klucel (hydroxypropylcellulose) (HPC)
[3] = dose: 50.0 mg/kg/injection, schedule: Q01DX009 (ip), vehicle: Klucel (hydroxypropylcellulose) (HPC)
[4] = dose: 50.0 mg/kg/injection, schedule: Q04DX003 (ip), vehicle: Klucel (hydroxypropylcellulose) (HPC)
[5] = dose: 100.0 mg/kg/injection, schedule: Q04DX003 (ip), vehicle: Klucel (hydroxypropylcellulose) (HPC)
[6] = dose: 200.0 mg/kg/injection, schedule: Q04DX003 (ip), vehicle: Klucel (hydroxypropylcellulose) (HPC)
[7] = dose: 100.0 mg/kg/injection, schedule: Q01DX001 (ip), vehicle: saline
[8] = dose: 200.0 mg/kg/injection, schedule: Q01DX001 (ip), vehicle: saline
[9] = dose: 100.0 mg/kg/injection, schedule: Q01DX009 (ip), vehicle: saline with Tween-80
[10] = dose: 100.0 mg/kg/injection, schedule: Q01DX009 (ip), vehicle: Klucel (hydroxypropylcellulose) (HPC)
[11] = dose: 200.0 mg/kg/injection, schedule: Q01DX009 (ip), vehicle: Klucel (hydroxypropylcellulose) (HPC)

## O=C(Nc1ccc(C2=NCCN2)cc1)c1cc(Cl)cc(C(=O)Nc2ccc(C3=NCCN3)cc2)c1
dose: 62.5 mg/kg/injection, schedule: Q01DX009 (ip), vehicle: saline
  T/C: 96 % of control and 104 % of control
dose: 120.0 mg/kg/injection, schedule: Q01DX Z (oral), vehicle: carboxymethylcellulose (CMC)
  T/C: 102 % of control
dose: 125.0 mg/kg/injection, schedule: Q01DX009 (ip), vehicle: saline
  T/C: 99 % of control and 106 % of control
dose: 140.0 mg/kg/injection, schedule: Q01DX010 (ip), vehicle: saline
  T/C: 105 % of control
dose: 140.0 mg/kg/injection, schedule: Q01DX Z (ip), vehicle: methylcellulose (MC)
  T/C: 107 % of control and 110 % of control
dose: 210.0 mg/kg/injection, schedule: Q01DX010 (ip), vehicle: saline
  T/C: 109 % of control
dose: 210.0 mg/kg/injection, schedule: Q01DX Z (ip), vehicle: methylcellulose (MC)
  T/C: 115 % of control
dose: 240.0 mg/kg/injection, schedule: Q01DX Z (oral), vehicle: carboxymethylcellulose (CMC)
  T/C: 104 % of control
dose: 250.0 mg/kg/injection, schedule: Q01DX009 (ip), vehicle: saline
  T/C: 96 % of control and 104 % of control
dose: 315.0 mg/kg/injection, schedule: Q01DX010 (ip), vehicle: saline
  T/C: 98 % of control and 105 % of control
dose: 315.0 mg/kg/injection, schedule: Q01DX Z (ip), vehicle: methylcellulose (MC)
  T/C: 179 % of control
dose: 473.0 mg/kg/injection, schedule: Q01DX010 (ip), vehicle: saline
  T/C: 107 % of control and 110 % of control
dose: 473.0 mg/kg/injection, schedule: Q01DX Z (ip), vehicle: methylcellulose (MC)
  T/C: 151 % of control
dose: 480.0 mg/kg/injection, schedule: Q01DX Z (oral), vehicle: carboxymethylcellulose (CMC)
  T/C: 107 % of control
dose: 500.0 mg/kg/injection, schedule: Q01DX009 (ip), vehicle: saline
  T/C: 103 % of control and 112 % of control
dose: 960.0 mg/kg/injection, schedule: Q01DX Z (oral), vehicle: carboxymethylcellulose (CMC)
  T/C: 100 % of control

## O=C(Nc1ccc(S(=O)(=O)Nc2ccc(N=Nc3ccccc3)cc2)cc1)C(SC1=NC=NC2=NC=NC21)(SC1=NC=NC2=NC=NC21)SC1=NC=NC2=NC=NC21 (configuration not stated)
dose: 75.0 mg/kg/injection, schedule: Q04DX003 (ip), vehicle: saline
  T/C: 104 % of control
dose: 150.0 mg/kg/injection, schedule: Q04DX003 (ip), vehicle: saline
  T/C: 109 % of control
dose: 300.0 mg/kg/injection, schedule: Q04DX003 (ip), vehicle: saline
  T/C: 100 % of control

## C=C(Br)CNC(=O)C(C(F)(F)F)C(F)(F)F
dose: 12.5 mg/kg/injection, schedule: Q01DX009 (ip), vehicle: Klucel (hydroxypropylcellulose) (HPC)
  T/C: 95 % of control
[1]
  T/C: 96 % of control
dose: 25.0 mg/kg/injection, schedule: Q01DX009 (ip), vehicle: Klucel (hydroxypropylcellulose) (HPC)
  T/C: 97 % of control
[2]
  T/C: 98 % of control
[3]
  T/C: 95 % of control
[4]
  T/C: 96 % of control

## O=[N+]([O-])c1ccc([N+](=O)[O-])c2nsnc12
[1]
  T/C: 98 % of control
[2]
  T/C: 102 % of control

## COc1ccc(/C=C2\SC(=S)NC2=O)cc1OC
dose: 100.0 mg/kg/injection, schedule: Q01DX009 (ip), vehicle: saline sonified
  T/C: 96 % of control
[5]
  T/C: 98 % of control
dose: 200.0 mg/kg/injection, schedule: Q01DX009 (ip), vehicle: saline sonified
  T/C: 108 % of control
[6]
  T/C: 96 % of control
dose: 400.0 mg/kg/injection, schedule: Q01DX009 (ip), vehicle: saline sonified
  T/C: 94 % of control
dose: 400.0 mg/kg/injection, schedule: Q04DX003 (ip), vehicle: Klucel (hydroxypropylcellulose) (HPC)
  T/C: 96 % of control

## O=[N+]([O-])c1ccc2c(N=Nc3ccc4ccccc4c3O)c(O)cc(S(=O)(=O)O)c2c1
dose: 50.0 mg/kg/injection, schedule: Q04DX003 (ip), vehicle: carboxymethylcellulose (CMC)
  T/C: 94 % of control
dose: 100.0 mg/kg/injection, schedule: Q04DX003 (ip), vehicle: carboxymethylcellulose (CMC)
  T/C: 93 % of control
dose: 200.0 mg/kg/injection, schedule: Q04DX003 (ip), vehicle: carboxymethylcellulose (CMC)
  T/C: 102 % of control

## Cc1ccc(N)cc1
[7]
  T/C: 114 % of control
[8]
  T/C: 102 % of control

## CCCCCCCCCCCCOc1ccc(C=Nc2ccc(C)cc2)cc1
dose: 100.0 mg/kg/injection, schedule: Q04DX002 (ip), vehicle: Klucel (hydroxypropylcellulose) (HPC)
  T/C: 109 % of control
dose: 200.0 mg/kg/injection, schedule: Q04DX002 (ip), vehicle: Klucel (hydroxypropylcellulose) (HPC)
  T/C: 109 % of control
dose: 400.0 mg/kg/injection, schedule: Q04DX002 (ip), vehicle: Klucel (hydroxypropylcellulose) (HPC)
  T/C: 95 % of control

## CCOC(=O)NN=C1CCCC1
dose: 50.0 mg/kg/injection, schedule: Q01DX009 (ip), vehicle: saline with Tween-80
  T/C: 94 % of control
[9]
  T/C: 97 % of control

## CC1(C)CC(=O)C2=C(C1)Nc1ccccc1CC2c1c[nH]c2ccccc12 (configuration not stated)
dose: 100.0 mg/kg/injection, schedule: Q01DX001 (ip), vehicle: other
  T/C: 94 % of control
dose: 200.0 mg/kg/injection, schedule: Q01DX001 (ip), vehicle: other
  T/C: 103 % of control
dose: 400.0 mg/kg/injection, schedule: Q01DX001 (ip), vehicle: other
  T/C: 103 % of control

## COc1ccc(OC)c(NC(=O)Nc2cc(OC)ccc2OC)c1
[9]
  T/C: 106 % of control
dose: 200.0 mg/kg/injection, schedule: Q01DX009 (ip), vehicle: saline with Tween-80
  T/C: 97 % of control
dose: 400.0 mg/kg/injection, schedule: Q01DX009 (ip), vehicle: saline with Tween-80
  T/C: 94 % of control

## C[n+]1cccc2cc(NC(=O)c3ccc(C(=O)Nc4ccc5c(ccc[n+]5C)c4)cc3)ccc21
dose: 0.94 mg/kg/injection, schedule: Q01DX Z (ip), vehicle: saline
  T/C: 94 % of control
dose: 1.88 mg/kg/injection, schedule: Q01DX Z (ip), vehicle: saline
  T/C: 92 % of control
dose: 30.0 mg/kg/injection, schedule: Q01DX010 (oral), vehicle: saline
  T/C: 100 % of control
dose: 240.0 mg/kg/injection, schedule: Q01DX010 (oral), vehicle: saline
  T/C: 100 % of control

## CCCCC(=O)N1CCCC1
dose: 100.0 mg/kg/injection, schedule: Q04DX002 (ip), vehicle: saline
  T/C: 96 % of control
dose: 200.0 mg/kg/injection, schedule: Q04DX002 (ip), vehicle: saline
  T/C: 92 % of control
dose: 400.0 mg/kg/injection, schedule: Q04DX002 (ip), vehicle: saline
  T/C: 111 % of control

## CCCCCCCCCCCCNC(=O)c1ccc[n+](Cc2ccccc2)c1
dose: 5.0 mg/kg/injection, schedule: Q01DX009 (ip), vehicle: saline
  T/C: 102 % of control
dose: 5.0 mg/kg/injection, schedule: Q04DX003 (ip), vehicle: saline sonified
  T/C: 101 % of control
dose: 10.0 mg/kg/injection, schedule: Q01DX009 (ip), vehicle: saline
  T/C: 98 % of control
dose: 10.0 mg/kg/injection, schedule: Q04DX003 (ip), vehicle: saline sonified
  T/C: 106 % of control

## CC(C)Cc1ccc(C(C)C(=O)O)cc1 (configuration not stated)
[7]
  T/C: 100 % of control
[8]
  T/C: 92 % of control

## O=c1cc2oc3c(O)c(O)ccc3c3c4ccccc4c(=O)c(c1)c23
dose: 12.5 mg/kg/injection, schedule: Q01DX009 (ip), vehicle: saline
  T/C: 92 % of control
dose: 25.0 mg/kg/injection, schedule: Q01DX009 (ip), vehicle: saline
  T/C: 96 % of control
dose: 50.0 mg/kg/injection, schedule: Q01DX009 (ip), vehicle: saline
  T/C: 103 % of control and 91 % of control
dose: 100.0 mg/kg/injection, schedule: Q04DX003 (ip), vehicle: saline
  T/C: 96 % of control
dose: 200.0 mg/kg/injection, schedule: Q04DX003 (ip), vehicle: saline
  T/C: 102 % of control

## C=C(Br)CNC1CCC(CCCC)CC1 (configuration not stated)
[4]
  T/C: 106 % of control
dose: 100.0 mg/kg/injection, schedule: Q01DX001 (ip), vehicle: Klucel (hydroxypropylcellulose) (HPC)
  T/C: 98 % of control
[5]
  T/C: 102 % of control
dose: 200.0 mg/kg/injection, schedule: Q01DX001 (ip), vehicle: Klucel (hydroxypropylcellulose) (HPC)
  T/C: 98 % of control
[6]
  T/C: 93 % of control
dose: 400.0 mg/kg/injection, schedule: Q01DX001 (ip), vehicle: Klucel (hydroxypropylcellulose) (HPC)
  T/C: 98 % of control

## CN(CC(=O)O)C(=O)CNC(=O)OCc1ccccc1 (Cbz-Gly-[Sar]-OH)
[3]
  T/C: 105 % of control
[4]
  T/C: 97 % of control
[10]
  T/C: 94 % of control
[5]
  T/C: 97 % of control
[11]
  T/C: 91 % of control
[6]
  T/C: 98 % of control

## Cn1c(C(=O)O)cc2ccccc21
[10]
  T/C: 110 % of control
[11]
  T/C: 112 % of control
dose: 400.0 mg/kg/injection, schedule: Q01DX009 (ip), vehicle: Klucel (hydroxypropylcellulose) (HPC)
  T/C: 96 % of control
